{"source": "BindingDB's records for patent US20240109900", "about": "(IRBM, 2024)", "target": "T1, Tyrosine-protein phosphatase non-receptor type 11 (Homo sapiens, UniProt Q06124)", "T1 sequence (Q06124 whole entry)": "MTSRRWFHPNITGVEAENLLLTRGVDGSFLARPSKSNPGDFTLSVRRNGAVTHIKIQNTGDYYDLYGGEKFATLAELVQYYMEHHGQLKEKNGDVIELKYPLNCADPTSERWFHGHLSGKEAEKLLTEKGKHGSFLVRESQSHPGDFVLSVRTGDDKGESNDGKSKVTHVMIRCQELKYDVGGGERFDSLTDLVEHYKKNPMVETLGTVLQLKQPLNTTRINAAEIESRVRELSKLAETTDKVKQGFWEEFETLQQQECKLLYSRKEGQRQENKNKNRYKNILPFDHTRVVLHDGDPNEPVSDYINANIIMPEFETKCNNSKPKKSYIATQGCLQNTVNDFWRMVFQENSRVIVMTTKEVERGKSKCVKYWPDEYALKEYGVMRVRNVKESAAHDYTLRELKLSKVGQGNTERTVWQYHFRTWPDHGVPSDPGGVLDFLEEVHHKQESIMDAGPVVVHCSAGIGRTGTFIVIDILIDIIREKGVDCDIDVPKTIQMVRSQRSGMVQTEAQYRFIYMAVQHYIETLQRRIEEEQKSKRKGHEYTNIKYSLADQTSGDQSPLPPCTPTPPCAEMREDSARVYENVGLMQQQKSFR", "assay": "SHP2 Inhibition Enzymatic Assay", "protocol": "Assay volume of 20 μL/well was assembled in 384 well black polystyrene low-binding microplates (Greiner), using the following buffer: 60 mM HEPES pH 7.2, 75 mM NaCl, 75 mM KCl, 1 mM EDTA pH 8, 0.05% tween-20, 5 mM DTT. The SHP-2 enzyme (synthetized by Origene, Met1-Leu525, cat #TP750155) was used at a final concentration of 0.5 nM. […] SHP2 was then added together with the IRS1 peptide. 30 min post incubation, the DiFMUP substrate was added to the reaction and incubated 30 min at room temperature. […] The fluorescence was detected by a microplate reader (Envision, PerkinElmer) according to the DiFMUP excitation and emission wavelength. The lower the fluorescence the higher the SHP2 inhibition. […] The percentage inhibition is fitted against the compound dilutions with a four-parameter logistic regression."}
{"smiles": "NCC1(c2ccccc2F)C2CCN(c3cc4nc(Sc5ccnc(N)c5Cl)cnc4[nH]3)CC21", "note": "(centres undefined) [US20240109900, Example 59]", "values": [{"measurement": "IC50", "result": "< 500", "unit": "nM"}]}
{"smiles": "Cc1cc(C(N)=O)ncc1-c1n[nH]c2nc(N3CC[C@@H]4[C@H](C3)[C@@]4(CN)c3ccccc3F)cnc12", "note": "[US20240109900, Example 307]", "values": [{"measurement": "IC50", "result": "< 500", "unit": "nM"}]}
{"smiles": "Cc1c(-c2n[nH]c3nc(N4CC[C@@H]5[C@H](C4)[C@@]5(CN)c4cc(F)cc(F)c4)cnc23)ccc2nn(C)cc12", "note": "[US20240109900, Example 308]", "values": [{"measurement": "IC50", "result": "< 500", "unit": "nM"}]}
{"smiles": "N#CNC(=O)c1ccc(-c2n[nH]c3nc(N4CC[C@@H]5[C@H](C4)[C@@]5(CN)c4ccccc4F)cnc23)c(Cl)c1", "note": "[US20240109900, Example 310]", "values": [{"measurement": "IC50", "result": "< 500", "unit": "nM"}]}
{"smiles": "NC[C@]1(c2ccccc2F)[C@@H]2CCN(c3cnc4c(-c5ccc(-c6cc(F)c(O)c(F)c6)cc5Cl)n[nH]c4n3)C[C@@H]21", "note": "[US20240109900, Example 313]", "values": [{"measurement": "IC50", "result": "< 500", "unit": "nM"}]}
{"smiles": "NC[C@]1(c2ccccc2F)[C@@H]2CCN(c3cnc4c(-c5ccc(F)c6c(=O)[nH]ccc56)n[nH]c4n3)C[C@@H]21", "note": "[US20240109900, Example 314]", "values": [{"measurement": "IC50", "result": "< 500", "unit": "nM"}]}
{"smiles": "Cc1c(-c2n[nH]c3nc(N4CC[C@@H]5[C@H](C4)[C@@]5(CN)c4ccccc4F)cnc23)ccc2c1ncn2C", "note": "[US20240109900, Example 318]", "values": [{"measurement": "IC50", "result": "< 500", "unit": "nM"}]}
{"smiles": "NC[C@]1(c2ccccc2F)[C@@H]2CCN(c3cnc4c(-c5ccc6c(N)nccc6c5)n[nH]c4n3)C[C@@H]21", "note": "[US20240109900, Example 319]", "values": [{"measurement": "IC50", "result": "< 500", "unit": "nM"}]}
{"smiles": "CN1CCOc2ccc(-c3n[nH]c4nc(N5CC[C@@H]6[C@H](C5)[C@@]6(CN)c5ccccc5F)cnc34)c(Cl)c21", "note": "[US20240109900, Example 321]", "values": [{"measurement": "IC50", "result": "< 500", "unit": "nM"}]}
{"smiles": "NC[C@]1(c2ccccc2F)[C@@H]2CCN(c3cnc4c(-c5ccc(CC(N)=O)cc5Cl)n[nH]c4n3)C[C@@H]21", "note": "[US20240109900, Example 328]", "values": [{"measurement": "IC50", "result": "< 500", "unit": "nM"}]}
{"smiles": "NC[C@]1(c2ccccc2F)[C@@H]2CCN(c3nc4nc(Sc5ccnc(-n6cccn6)c5Cl)cnc4[nH]3)C[C@@H]21", "note": "[US20240109900, Example 342]", "values": [{"measurement": "IC50", "result": "< 500", "unit": "nM"}]}
{"smiles": "COc1nccc2cc(-c3n[nH]c4nc(N5CC[C@@H]6[C@H](C5)[C@@]6(CN)c5ccccc5F)cnc34)ccc12", "note": "[US20240109900, Example 352]", "values": [{"measurement": "IC50", "result": "< 500", "unit": "nM"}]}
{"smiles": "Cc1nc2ccc(-c3n[nH]c4nc(N5CC[C@@H]6[C@H](C5)[C@@]6(CN)c5ccccc5F)cnc34)c(Cl)c2n1C", "note": "[US20240109900, Example 358]", "values": [{"measurement": "IC50", "result": "< 500", "unit": "nM"}]}
{"smiles": "NC[C@]1(c2ccccc2F)[C@@H]2CCN(c3cnc4c(-c5ccc6nn(CCO)cc6c5Cl)n[nH]c4n3)C[C@@H]21", "note": "[US20240109900, Example 365]", "values": [{"measurement": "IC50", "result": "< 500", "unit": "nM"}]}
{"smiles": "CC(C)(C)C#Cc1n[nH]c2nc(N3CC[C@@H]4[C@H](C3)[C@@]4(CN)c3ccccc3F)cnc12", "note": "[US20240109900, Example 366]", "values": [{"measurement": "IC50", "result": "< 500", "unit": "nM"}]}
{"smiles": "NC[C@]1(c2ccccc2F)[C@@H]2CCN(c3cnc4c(-c5ccc(-c6nsc(O)n6)cc5Cl)n[nH]c4n3)C[C@@H]21", "note": "[US20240109900, Example 379]", "values": [{"measurement": "IC50", "result": "< 500", "unit": "nM"}]}
{"smiles": "NC[C@]1(c2ccsn2)[C@@H]2CN(c3cnc4c(-c5ccc6nn(C(F)F)cc6c5Cl)n[nH]c4n3)C[C@@H]21", "note": "[US20240109900, Example 468]", "values": [{"measurement": "IC50", "result": "< 500", "unit": "nM"}]}
{"smiles": "Cc1csc([C@@]2(CN)[C@@H]3CN(c4cnc5c(-c6ccnc(C)c6F)n[nH]c5n4)C[C@@H]32)n1", "note": "[US20240109900, Example 477]", "values": [{"measurement": "IC50", "result": "< 500", "unit": "nM"}]}
{"smiles": "Cc1csc([C@@]2(CN)[C@@H]3CCN(c4cnc5c(-c6ccc(F)c7ncccc67)c[nH]c5n4)C[C@@H]32)n1", "note": "[US20240109900, Example 502]", "values": [{"measurement": "IC50", "result": "< 500", "unit": "nM"}]}
{"smiles": "Cc1csc([C@@]2(CN)[C@@H]3CN(c4cnc5c(-c6ccc7c(c6)CC(=O)N7C)n[nH]c5n4)C[C@@H]32)n1", "note": "[US20240109900, Example 513]", "values": [{"measurement": "IC50", "result": "< 500", "unit": "nM"}]}
{"smiles": "Cc1csc([C@@]2(CN)[C@@H]3CN(c4cnc5c(-c6ccnc(-n7cccn7)c6Cl)n[nH]c5n4)C[C@@H]32)n1", "note": "[US20240109900, Example 516]", "values": [{"measurement": "IC50", "result": "< 500", "unit": "nM"}]}
{"smiles": "Cc1csc([C@@]2(CN)[C@@H]3CN(c4cnc(Sc5ccnc(-n6cccn6)c5Cl)cn4)C[C@@H]32)n1", "note": "[US20240109900, Example 520]", "values": [{"measurement": "IC50", "result": "< 500", "unit": "nM"}]}
{"smiles": "Cc1csc([C@@]2(CN)[C@@H]3CN(c4nc(C)n(-c5cccc(Cl)c5Cl)c(=O)c4Cl)C[C@@H]32)n1", "note": "[US20240109900, Example 526]", "values": [{"measurement": "IC50", "result": "< 500", "unit": "nM"}]}
{"smiles": "NC[C@]1(c2cc(F)ccc2F)[C@@H]2CCN(c3cnc4c(-c5cccc6c5CCC(=O)N6)n[nH]c4n3)C[C@@H]21", "note": "[US20240109900, Example 531]", "values": [{"measurement": "IC50", "result": "< 500", "unit": "nM"}]}
